# Molecular target: T1, MRGPRX2 (Homo sapiens, UniProt Q96LB1)
# T1 sequence (Q96LB1 1-330): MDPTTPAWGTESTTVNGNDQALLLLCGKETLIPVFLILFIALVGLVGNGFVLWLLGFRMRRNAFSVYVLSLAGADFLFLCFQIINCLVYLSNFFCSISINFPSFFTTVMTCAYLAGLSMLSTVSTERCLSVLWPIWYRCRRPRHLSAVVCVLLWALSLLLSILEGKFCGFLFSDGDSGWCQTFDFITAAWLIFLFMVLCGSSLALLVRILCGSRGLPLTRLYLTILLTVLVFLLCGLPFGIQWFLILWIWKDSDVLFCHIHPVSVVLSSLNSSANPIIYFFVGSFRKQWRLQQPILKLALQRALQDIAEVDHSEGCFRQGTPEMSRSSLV
# Test: MRGPRX2 reporter cell assay (NFAT-RE luciferase, Substance P stimulation)
# Format: cell-based
# Conditions: U2OS cells stably transfected with MRGPRX2 and NFAT-RE luciferase reporter; Substance P at EC80
# Protocol: MRGPRX2 Reporter Cell Assays U2OS cells (ATCC, Manassas, VA) were stably transfected with MRGPRX2 expression clones (GeneCopoeia, Rockville, MD) and the pGL4.30 [luc2P/NFAT-RE/Hygro] reporter plasmid (Promega, Madison, WI). Clonal cells were maintained in Growth Media (McCoy's 5A, 10% FBS, 495 μg/ml hygromycin, 2 μg/ml puromycin, 100 units/ml penicillin, and 100 ug/ml streptomycin). The day before assay, cells were plated to white 384-well microplates at 3000 (MRGPRX2) cells/well in 10 ul Assay Media (McCoy's 5A, 2% charcoal dextran stripped FBS, 100 units/ml penicillin, and 100 ug/ml streptomycin) (Gibco, Thermo Fisher) and allowed to adhere overnight. The following day, serially diluted compound stocks were added directly to the cells (final DMSO concentration of 0.5%) and pre-incubated for 30 minutes at 37° C., 5% CO2. The final concentration of Substance P (Tocris, Minneapolis, MN, or PEPTIDE INSTITUTE, Osaka, Japan) corresponding to EC80 was added to stimulate the (MRGPRX2) cells. Cells were returned to the incubator for 6 hrs, after which 5 ul of ONE-GLO substrate (Promega) was added. Luminescence was read within 15 minutes (BioTek, Winooski, VT or infinite M1000Pro, Tecan Japan, Kanagawa, Japan). Percent inhibition for each test compound was calculated using the formula: […] where: • A=the luminescence count of the “test compound” well • B=the median luminescence count of the “Vehicle (0.5% DMSO)” wells • C═the median luminescence count of the “Vehicle (0.5% DMSO)+5 uM of substance P” wells The mean percent inhibition of each concentration of “test compound” was used to generate dose-response curves. IC50 values were calculated using a four-parameter logistic fit to the data using GraphPad Prism software. • +++: […]
row,IC50 [nM],Compound
1,5.8,CCc1nn2c(c1-c1[nH]c3ncccc3c1-c1cn(C)nc1OC(F)F)OCCC2 [EX. 422]

# Same assay, conditions: U2OS cells stably transfected with MRGPRX2 and NFAT-RE luciferase reporter; Substance P at EC80; class symbols
row,Compound,IC50 [nM]
1,"COc1ccc(F)cc1-c1[nH]c2ncccc2c1C1=CC(C)(C)CCC1OC (centres unmarked) [EX. 351, 2-(5-fluoro-2-methoxyphenyl)-3-(6-methoxy-3,3-dimethylcyclohex-1-en-1-yl)-1H-pyrrolo[2,3-b]pyridine]",100 to 1000
2,"COc1ccc(C#N)c(-c2c(-c3c(C)nn4c3OCC(NC(C)=O)C4)[nH]c3ncccc23)c1 (centres unmarked) [EX. 354, N-[3-[3-(2-cyano-5-methoxy-phenyl)-1H-pyrrolo[2,3-b]pyridin-2-yl]-2-methyl-6,7-dihydro-5H-pyrazolo[5,1-b] [1,3]oxazin-6-yl]acetamide]",< 10
3,COc1ccc(C#N)c(-c2c(-c3c(C)nn4c3OCC(N)C4)[nH]c3ncccc23)c1 (centres unmarked) [EX. 355],< 10
4,COc1ccc(C#N)c(-c2c(-c3c(C)nn4c3OCC(NC(C)=O)C4)[nH]c3ncccc23)c1 (centres unmarked) [EX. 356],< 10
5,COc1ccc(C#N)c(-c2c(-c3c(C(F)F)nn4c3OCC(N)C4)[nH]c3ncccc23)c1 (centres unmarked) [EX. 357],< 10
6,COc1ccc(C#N)c(-c2c(-c3c(C(F)F)nn4c3OCC(NC(C)=O)C4)[nH]c3ncccc23)c1 (centres unmarked) [EX. 358],< 10
7,COc1ccc(C#N)c(-c2c(-c3c(C)nn4c3OCC(N)C4)[nH]c3ncccc23)c1 (centres unmarked) [EX. 359],< 10
8,COc1ccc(C#N)c(-c2c(-c3c(C(F)F)nn4c3OC[C@H](N)C4)[nH]c3ncccc23)c1 [EX. 361],< 10
9,COc1ccc(C#N)c(-c2c(-c3c(C(F)F)nn4c3OC[C@H](NC(C)=O)C4)[nH]c3ncccc23)c1 [EX. 362],< 10
10,COc1ccc(C#N)c(-c2c(-c3c(C(F)F)nn4c3OC[C@@H](N)C4)[nH]c3ncccc23)c1 [EX. 363],< 10
11,COc1ccc(C#N)c(-c2c(-c3c(C(F)F)nn4c3OC[C@@H](NC(C)=O)C4)[nH]c3ncccc23)c1 [EX. 364],< 10
12,"[2H]C([2H])([2H])Oc1ccc(C#N)c(-c2c(-c3c(C)nn4c3OC[C@@H](O)C4)[nH]c3ncccc23)c1 [EX. 366, 2-[2-[(6S)-6-hydroxy-2-methyl-6,7-dihydro-5H-pyrazolo[5,1-b] [1,3]oxazin-3-yl]-1H-pyrrolo[2,3-b]pyridin-3-yl]-4-(trideuteriomethoxy)benzonitrile]",< 10
13,[2H]C([2H])([2H])Oc1ccc(C#N)c(-c2c(-c3c(C)nn4c3OCC(O)C4)[nH]c3ncccc23)c1 (centres unmarked) [EX. 367],< 10
14,COc1ccc(C#N)c(-c2c(-c3c(C(F)F)nn4c3OC[C@H](O)C4)[nH]c3ncccc23)c1 [EX. 368],< 10
15,COc1ccc(C#N)c(-c2c(-c3c(C(F)F)nn4c3OC[C@@H](O)C4)[nH]c3ncccc23)c1 [EX. 369],< 10
16,[2H]C([2H])([2H])Oc1ccc(C#N)c(-c2c(-c3c(C(F)F)nn4c3OC[C@H](O)C4)[nH]c3ncccc23)c1 [EX. 370],< 10
17,N#Cc1ccccc1-c1c(-c2c(C(F)F)nn3c2OC[C@H](O)C3)[nH]c2ncccc12 [EX. 371],< 10
18,"Cn1cc(-c2[nH]c3ncccc3c2-c2cc(Cl)ccc2C#N)c(C(F)F)n1 [EX. 375, 4-chloro-2-[2-[3-(difluoromethyl)-1-methyl-pyrazol-4-yl]-1 H-pyrrolo[2,3-b]pyridin-3-yl]benzonitrile]",< 10
19,[2H]C([2H])([2H])n1cc(-c2[nH]c3ncccc3c2-c2cc(OC)ccc2C#N)c(C(F)F)n1 [EX. 377],< 10
20,Cc1cc(-c2c(-c3cnn4c3OCCC4)[nH]c3ncccc23)c(C#N)s1 [EX. 380],10 to 100
21,Cn1cc(-c2c(-c3c(C(F)F)nn4c3OCCC4)[nH]c3ncccc23)c(C#N)n1 [EX. 401],< 10
22,N#Cc1nscc1-c1c(-c2c(C(F)F)nn3c2OCCC3)[nH]c2ncccc12 [EX. 403],< 10
23,Cn1cc(-c2c(-c3c(C4CC4)nn4c3OCCC4)[nH]c3ncccc23)c(OC(F)F)n1 [EX. 420],< 10
24,"Cc1nn2c(c1-c1[nH]c3ncccc3c1-c1cn(C)nc1OC(F)F)OCCC2 [EX. 421, 3-(3-(3-(difluoromethoxy)-1-methyl-1H-pyrazol-4-yl)-1H-pyrrolo[2,3-b]pyridin-2-yl)-2-methyl-6,7-dihydro-5H-pyrazolo[5,1-b] [1,3]oxazine]",< 10
25,CCc1nn2c(c1-c1[nH]c3ncccc3c1-c1cn(C)nc1OC(F)F)OCCC2 [EX. 422],< 10
26,Cn1cc(-c2c(-c3c(CF)nn4c3OCCC4)[nH]c3ncccc23)c(OC(F)F)n1 [EX. 423],< 10
27,N#Cc1ncccc1-c1c(-c2c(C(F)F)nn3c2OC[C@@H](F)C3)[nH]c2ncccc12 [EX. 424],< 10
28,"Cn1cc(-c2c(-c3c(C(F)F)nn4c3OCC(O)C4)[nH]c3ncccc23)c(OC(F)F)n1 (centres unmarked) [EX. 426, 3-(3-(3-(difluoromethoxy)-1-methyl-1H-pyrazol-4-yl)-1H-pyrrolo[2,3-b]pyridin-2-yl)-2-(difluoromethyl)-6,7-dihydro-5H-pyrazolo[5,1-b] [1,3]oxazin-6-ol]",< 10

# Next, values leading:
row,IC50 [nM],Compound
1,10 to 100,"FC(F)Oc1nnccc1-c1c(-c2c(C(F)F)nn3c2OCCC3)[nH]c2ncccc12 [EX. 388, 3-(3-(3-(difluoromethoxy)pyridazin-4-yl)-1H-pyrrolo[2,3-b]pyridin-2-yl)-2-(difluoromethyl)-6,7-dihydro-5H-pyrazolo[5,1-b] [1,3]oxazine]"
2,10 to 100,"FC(F)Oc1nnc(Cl)cc1-c1c(-c2c(C(F)F)nn3c2OCCC3)[nH]c2ncccc12 [EX. 389, 3-(3-(6-chloro-3-(difluoromethoxy)pyridazin-4-yl)-1H-pyrrolo[2,3-b]pyridin-2-yl)-2-(difluoromethyl)-6,7-dihydro-5H-pyrazolo[5,1-b] [1,3]oxazine]"
3,10 to 100,"CCn1cc(-c2c(-c3c(C(F)F)nn4c3OCCC4)[nH]c3ncccc23)c(OC(F)F)n1 [EX. 400, 3-[3-[3-(difluoromethoxy)-1-ethyl-pyrazol-4-yl]-1H-pyrrolo[2,3-b]pyridin-2-yl]-2-(difluoromethyl)-6,7-dihydro-5H-pyrazolo[5,1-b] [1,3]oxazine]"
4,< 10,FC(F)Oc1nscc1-c1c(-c2c(C(F)F)nn3c2OCCC3)[nH]c2ncccc12 [EX. 402]
5,10 to 100,COc1nscc1-c1c(-c2c(C(F)F)nn3c2OCCC3)[nH]c2ncccc12 [EX. 404]
6,100 to 1000,FC(F)Oc1n[nH]cc1-c1c(-c2c(C(F)F)nn3c2OCCC3)[nH]c2ncccc12 [EX. 406]
7,10 to 100,FC(F)Oc1nocc1-c1c(-c2c(C(F)F)nn3c2OCCC3)[nH]c2ncccc12 [EX. 407]
8,< 10,N#Cc1cnccc1-c1c(-c2c(C(F)F)nn3c2OCCC3)[nH]c2ncccc12 [EX. 408]
9,100 to 1000,N#Cc1nccnc1-c1c(-c2c(C(F)F)nn3c2OCCC3)[nH]c2ncccc12 [EX. 409]
10,< 10,FC(F)Oc1ncccc1-c1c(-c2c(C(F)F)nn3c2OCCC3)[nH]c2ncccc12 [EX. 410]
11,10 to 100,N#Cc1ncccc1-c1c(-c2c(C(F)F)nn3c2OCCC3)[nH]c2ncccc12 [EX. 411]
12,10 to 100,FC(F)c1nn2c(c1-c1[nH]c3ncccc3c1-c1ccncc1C(F)(F)F)OCCC2 [EX. 412]
13,100 to 1000,N#Cc1cccnc1-c1c(-c2c(C(F)F)nn3c2OCCC3)[nH]c2ncccc12 [EX. 413]
14,10 to 100,FC(F)c1nn2c(c1-c1[nH]c3ncccc3c1-c1cnsc1C(F)F)OCCC2 [EX. 416]
15,< 10,N[C@@H]1COc2c(-c3[nH]c4ncccc4c3-c3csnc3OC(F)F)c(C(F)F)nn2C1 [EX. 425]

# Reference: patent publication US20250326772A1, “MRGPRX2 ANTAGONISTS, PHARMACEUTICAL COMPOSITION INCLUDING MRGPRX2 ANTAGONIST, AND METHOD OF TREATING MRGPRX2-MEDIATED DISEASE OR DISORDER” (KYORIN PHARMACEUTICAL CO., LTD., priority 2024, published 2025)
